# “Also recorded” adds a separate entry of the source.
# Key:
# [1] = test system: formalin-induced nociceptive responses; test: Rat formalin test (paw flinching), intrathecal drug; format: in vivo, Sprague-Dawley rats
# Source text: One such model, for response to an acute stimulus, is the rat formalin test. This test reflects several levels of processing of nociceptive information in the spinal cord (see Wheeler-Aceto, et al. 1990; Wheeler-Aceto, et al., 1991). […] This second phase is thought to represent a state of facilitated processing evoked by the afferent input present during phase 1 and to involve release of at least two substances, glutamate and a, tachykinin, based on pharmacological evidence (Yamamoto and Yaksh, 1991, 1992).
# In the rat formalin test, a standard dose of formalin is injected into the rat paw, and flexions of the paw are quantitated over the following 90 minute period (Example 1). A biphasic response pattern is typically observed, with numerous responses observed during the period 5 min. after injection (Phase 1) and a second phase (Phase 2) which occurs during the period about 10-60 minutes following injection. The mean number of flinches per minute is recorded as a function of time.
# Quantitation of responses during each phase is made by calculation of area under the curve of flinches/min., as shown in FIGS. 2B-2C.
# FIGS. 2, 3 and 5 show results of experiments in which varying doses of 3-hydroxy MEGX designated 3-hydroxy MEGX, were tested for effects on the formalin response in rats. A 5% formalin solution was injected subcutaneously into the hindpaw of Sprague-Dawley rats. Ten minutes prior to formalin injection, 3-hydroxy MEGX was administered by bolus injection through an indwelling spinal (intrathecal) catheter terminating at the lumbar enlargement. For the results shown in FIGS. 2A-2C, dosing solutions were acidified to pH 6.58 with HCl. Injection volume was 20 μl.
# In the standard rat formalin test, as described above, the test substance is administered prior to formalin injection. […]
# Rats (male Sprague-Dawley, 275-300 g, Harlan Industries, Indianapolis, Ind.) were implanted with lumbar intrathecal catheters under halothane anesthesia (Yaksh and Rudy, 1976). Catheters (Polyethlyene PE-10) extended from the cisterna to the rostral edge of the lumbar enlargement. Three to five days after implant, animals without motor dysfunction were tested. Drugs tested in this assay were dissolved in sterile saline (0.9% NaCl) and injected in a volume of 10 μl followed by 10 μl sterile saline to clear the catheter.
# Animals were examined for the effects of drugs given in the formalin test, in which 50 μl of 5% formalin was injected on the plantar surface of the paw of a lightly anesthetized (halothane, 3%) animal. The number of spontaneous flinchings/shakings of the injected paw were counted at intervals after the injection of the formalin.
# The area under the curve of flinches/min was calculated for phase 1 (time=0-10 min) and phase 2 (10-60 min). […]
# [2] = Observation of motor dysfunction and overt behavior / side effects; format: in vivo, Sprague-Dawley rats; conditions: for overt changes in behavior / adverse side effects, formalin test: formalin test studies; for overt changes in behavior / adverse side effects, formalin test / adverse side effects, neuropathy model: intrathecal; for adverse side effects, neuropathy model: neuropathic rats, 3-hydroxy MEGX 0.3 and 0.6 μmol, lidocaine 0.6 μmol
# Source text: Animals were also observed for the appearance of general motor dysfunction,as evidenced by inability to ambulate symmetrically and for any other overt signs of unusual activity.
# [3] = test system: sciatic nerve compound action potential; test: Rat sciatic nerve compound action potential in vivo, direct application; set-up: species or system Harlan Sprague Dawley rats; conditions: for blockade of sciatic nerve compound action potential (in words): direct application, metabolites 5 mg, 10 min
# Experimental: Male Harlan Sprague Dawley rats (300-350 g) were anesthetized with pentobarbital/diazepam. The sciatic nerves were sequentially and bilaterally exposed by sharp/blunt dissection from the popliteal region proximally. Electrodes were placed at the sciatic notch (stimulating), and the interossei (recording); a grounding electrode was applied remote from the field. Baseline compound action potential (CAP) (A alpha/beta) wave heights (mV) in response to stimulation 1× per minute were recorded for ten minutes to obtain a stable reference. One drug/vehicle solution was applied per nerve, at mid-nerve (mid-thigh) level, in a volume of 250 μl, and compound action potential wave height then was recorded 1× per minute for ten minutes after application.
# allodynia = test: Tactile allodynia (paw withdrawal threshold, % MPE) in L5/L6 spinal nerve ligated rats, Example 3; format: in vivo, Harlan Sprague-Dawley rats
# Experimental: Male Harlan Sprague-Dawley rats were used (100-200 g). Rats were housed 2-3 to a cage with corn cob bedding and Purina rat chow and water ad libitum, in a standard facility with a 12 h/12 h day/night cycle. After surgical procedures involving chronic indwelling catheter insertion, animals were housed singly to prevent catheter damage.
# Rats were allowed to recover 5-7 days before further testing or surgeries.
# The catheters were 9 cm in intrathecal length and terminated near the lumbar enlargement. The rostral 3 cm of catheter was tunneled under the skin to externalize between the ears. Rats with neurologic deficits were discarded.
# For intravascular access, external jugular catheters were fashioned from PE-50 tubing and inserted into an external jugular vein under halothane/oxygen anesthesia. Arterial catheters were also fashioned from PE-50 with a small bouton 1 cm from the intravascular end for suture securing; they were inserted into a carotid artery, taking care to spare the surrounding nerves. All catheters were flushed with heparinized saline (10 U/ml) and tunneled subcutaneously to emerge at the posterior base of the neck, and capped when not in use.
# Monoethylglycinexylidide (MEGX) and 3-hydroxy monoethyl-glycinexylidide (3-OH MEGX) were dissolved in physiologic saline; 3-hydroxylidocaine (3-OH L) was dissolved in DMSO for intravenous administration.
# Intravenous drugs were delivered to awake, unrestrained rats by slow infusion using a syringe pump (Harvard apparatus 22). Intrathecal drugs were delivered to awake, briefly restrained rats in a volume of 10 μl, followed by 10 μl of vehicle flush, using a calibrated tubing extension with a 30-gauge adapter fitting the implanted intrathecal catheter, attached to a geared Hamilton 100 μl glass syringe. IT drug delivery was monitored by observing the advancement of a small air bubble down the tubing.
# Rats were placed in a plastic cage with an open wire mesh bottom and allowed to accommodate for approximately fifteen minutes. […] In brief, von Frey hairs were sequentially applied using an up-and-down paradigm to the left mid-plantar hindpaw with sufficient force to cause slight filament buckling. Positive responses were noted if the paw was sharply withdrawn. […] Otherwise, PWT were calculated by noting the stimulus level at which the first change in behavior occurred, collecting four additional responses to the continued up-and-down oscillation of stimulus presentation around the response threshold, and interpolating the 50% response threshold. For some comparisons, raw thresholds were converted to percent of maximum possible effect (% MPE), designating pre-treatment PWT (baselines) as 0% effect, and assigning a cutoff value of 100% effect to thresholds ≥15 g: therefore, % MPE values near 100 indicate normal mechanical thresholds (i.e., at or near 15 g), whereas values near 0 indicate allodynia. The following equation was used to compute % MPE:
# % MPE=new threshold(g)-baseline threshold(g)×100/ 15 grams--baseline
# Plasma drug levels and PWT were correlated using linear regression. Serially measured PWT and % MPE were compared using repeated measures ANOVA with post-hoc testing.
# [4] = acute Phase 1, intrathecal, 10 min before 5% formalin, pH 6.58
# [5] = lowest dose, 16.5 μg intrathecal, pH 6.58
# [6] = persistent Phase 2, intrathecal, 10 min before 5% formalin, pH 6.58
compound,measurement,setting,value
CCN(CC)CC(=O)Nc1c(C)cccc1C [lidocaine],effect on formalin-induced nociceptive responses,"[1]; intrathecal, pH 6.58, injection volume 20 μl",no effect on the formalin-induced nociceptive responses
same,duration of motor dysfunction (hindquarter flaccidity / weakness),"[2]; IT, 500 μg",approximately 10 minutes
same,"motor dysfunction, IT (in words)","[2]; IT, Example 3, lidocaine and MEGX 500 μg, 3-OH L 58 μg (highest dose soluble in vehicle)",acute onset of hindquarter flaccidity
same,"overt changes in behavior / adverse side effects, formalin test",[2],transient hindlimb paresis
same,"adverse side effects, neuropathy model",[2],immediate and transient weakness
same,blockade of sciatic nerve compound action potential (in words),[3]; lidocaine 2.5 mg,rapid and complete blockade of the sciatic nerve action potential; also recorded: abolished the CAP with ten minutes
same,"effect on allodynia / PWT, IT 500 μg (in words)","allodynia; IT, 500 μg, after recovery of motor function",no effect on allodynia was seen
"CCNCC(=O)Nc1c(C)ccc(O)c1C [3-hydroxy MEGX, 2-(ethylamino)-N-(3-hydroxy-2,6-dimethylphenyl) acetamide]",Phase 1 ED50 (approximately 50% inhibition),[1]; [4],9.3 µg
same,"Phase 1 ED50 (approximately 50% inhibition), molar",[1]; [4],42 nmol
same,"duration of inhibition, higher doses","[1]; higher doses, intrathecal, pH 6.58, ""up to 90 minutes or longer""",≥ 90 min
same,blockade of persistent (Phase 2) nociceptive responses,"[1]; intrathecal after formalin injection, pH 6.58",blocks persistent (Phase 2) nociceptive responses
same,blockade of formalin-induced acute and persistent nociceptive responses,"[1]; intrathecal, dosing solutions pH 9.2, n=4 animals/group",dose-dependent blockade
same,duration of inhibition,[1]; [5],up to one hour
same,inhibition of Phase 1 and Phase 2 responses,[1]; [5],showed inhibition of both the Phase 1 and Phase 2 responses
same,Phase 2 ED50 (approximately 50% inhibition),[1]; [6],29.9 µg
same,"Phase 2 ED50 (approximately 50% inhibition), molar",[1]; [6],135 nmol
same,motor block / motor effects (summary),"[2]; IT, 3-hydroxy MEGX at effective anti-allodynia dose, MEGX in excess",did not cause motor block at an effective anti-allodynia dose; also recorded: no evidence of motor effects
same,"overt changes in behavior / adverse side effects, formalin test",[2],produced no overt changes in behavior
same,"adverse side effects, neuropathy model",[2],no observable adverse side effects
same,local anesthetic (sodium channel blocking) activity,[3]; FIG. 12 legend,appears to lack local anesthetic (sodium channel blocking) activity altogether
same,blockade of sciatic nerve compound action potential (in words),[3]; lidocaine 2.5 mg,no blockade could be obtained
same,activity in ranking of CAP blockade (Lido>MEGS>3-OH L>>3-OH MEGX=0),"[3]; metabolites at 5 mg, lidocaine 2.5 mg",0
same,suppression of allodynia after IT administration (summary),allodynia; IT,suppressed allodynia after IT administration
same,"MPE, IT 67 μg","allodynia; IT, dose printed 67 μ, P<0.0001",63±17%
same,"effect on allodynia, IV (in words)","allodynia; IV infusion, 20 mg/kg",did not show a significant effect in suppressing allodynia
same,activity as metabolite with regard to allodynia suppression,"allodynia; rat, in vivo",active metabolite with regard to allodynia suppression
